In data set [1] the test system is RNA polymerase II CTD serine 5 (P-Ser5), CDK7 phosphorylation site. As to the kind of experiment: Immunoblotting of RNA polymerase II CTD Ser5 phosphorylation. The class given is cell-based, Human. The following applies: BGC823 whole cell lysates, 4 hours. For orientation: In western blotting, separated proteins are transferred to a membrane and probed.
Data set [2] concerns BGC823 cells. The experiment in a line: Western blot of apoptosis and cell cycle proteins. The class given is cell-based, Human. The following applies: P<0.05.
Data set [3] relates to BGC823 cells. As to the kind of experiment: Apoptosis by flow cytometry. The class given is cell-based, Human. The following applies: compared to control, dose- and time-dependent, P<0.05.
In data set [4] the test system is BGC823 cells. As to the kind of experiment: Cell cycle distribution by flow cytometry. The class given is cell-based, Human. (Flow cytometry measures light scatter and fluorescence of single cells or particles in a stream.)
Data set [5] deals with BGC823 xenograft.
For data set [6] the following is noted: cited from earlier work.
For data set [7], the system named is BGC823 cells. The experiment in a line: Transwell cell migration assay. The class given is cell-based, Human. The following applies: 24 hours, dose-dependent, P<0.05.
The target in data set [8] is other CDKs. As to the kind of experiment: Kinase assay in vitro, other CDKs overall. Type of data set: biochemical. The note with it: read-out: IC50 values for inhibition of other CDKs; CDKs other than CDK7.
The subject of data set [9] is BGC823 cells. The experiment in a line: Matrigel-coated transwell invasion assay. The note with it: 24 hours, matrigel-coated transwells, dose-dependent, P<0.05. The class given is cell-based, Human.

Where two headings read alike, the source gives them in different places. Bounds are passed on as bounds.

In the case of `CC(C)c1cnn2c(NCc3ccccc3)cc(NCCCCCCN)nc12` [BS-181], in data set [1], the “phosphorylation of the RNA polymerase II CTD at serine 5 (P-Ser5)” value was “inhibited”. Further, in data set [2], the XIAP expression entry was “significant reduction” and the “cyclin D1 expression” value is “significant reduction”. Also, in [2] (compared to control), the Bax expression entry is reported as “significantly increased”, the Bcl-2 level result is “reduced” and the caspase-3 expression result is recorded as “significantly increased”. In data set [3], the apoptotic cells result is reported as “Significant increases”. For the same compound, in data set [4], the “cell population in S and G2/M phases” value is reported as “reduction”; the “cells in G0/G1” value is “increase”. Besides, the “mice body weights, difference between groups” value in data set [5] (14-day observation, 10 or 20 mg/kg/d ip) was “no significant difference”. Also, in data set [5] (BS-181 10 mg/kg/d ip for 14 days, six of ten), the “mice died in additional 30-day survival observation” value (“mice died” below) was 60%. For the same compound, the “mice died” value in [5] (BS-181 20 mg/kg/d ip for 14 days, three of ten) amounted to 30%. Further, in data set [5] (daily dose of 10 mg/kg or 20 mg/kg ip, 14 days), the toxicity result is “no apparent toxicity”. The tumor growth result in data set [5] (ip twice daily, 10 or 20 mg/kg/d, 14 days, dose-dependent, compared to control, P<0.05) is “significantly inhibited”. For the same compound, the tolerability result in data set [6] (dose of 10 mg/kg/d or 20 mg/kg/d, BALB/c-nu mice) is given as “well-tolerated”. In data set [6] (given intraperitoneally), the “maximum tolerated single dose” value was 30 mg/kg/day. The cell migration ability entry in data set [7] was “significantly inhibited”. Moreover, the IC50 (as a rule, the point on the concentration scale where inhibition reaches its midpoint) in data set [8] is more than 1000 nM. Also, the cell invasion ability entry in [9] is recorded as “significantly inhibited”.

As for `CC[C@H](CO)Nc1nc(NCc2ccccc2)c2ncn(C(C)C)c2n1` [Roscovitine, roscovitine], the “mice died” value in data set [5] (roscovitine 20 mg/kg/d for 14 days, five of ten) is given as 50%.

(Values after publication PMC4801149 (Drug Design, Development and Therapy, 2016).)
